Source: patent US11571460B2 (priority 2017, dated 2023)

Key:
[1] = system: bone marrow-derived macrophages; assay: Phagocytosis assay with latex bead-FITC; format: cell-based, mouse; conditions: vs control group
Description: Cells were smeared in a 96-assay well plate and treated as described above. The cells were pretreated for 30 minutes with or without cytochalasin D before treatment with latex bead-FITC (Sigma-Aldrich). After 2 hours of incubation, the cells were washed with PBS three times to remove foreign particles. Fluorescence of internalized beads was measured using emission of 527 nm after excitation of 485 nm in a fluorescent plate reader (Fluorskan Ascent FL) quenching with trypan blue.

splenocytes = assay: Melittin binding study with rhodamine-bound melittin in splenocytes; format: cell-based, mice; conditions: 10 nM cytochalasin D pretreatment vs DMSO control
Description: After 1 hour, cells were harvested and the non-binding peptides were washed twice.
Next, the cells were cultured with rhodamine-bound peptides and stained with CD11b-APC antibodies as described above.
Annexin-V was added to a sample before data collection to distinguish dead cells. […] tumor-associated macrophage was stained with CD86-PEcy7 (e-bioscience) or CD206-PercpCy5.5 (Biolegend). The cells were detected in FACS Calibur or FACS CantoII.

C=C1[C@@H](C)[C@H]2[C@H](Cc3ccccc3)NC(=O)[C@]23[C@H](OC(C)=O)/C=C/[C@@](C)(O)C(=O)[C@@H](C)C/C=C/[C@H]3[C@@H]1O [cytochalasin D, reference compound]
phagocytic capacity / phagocytosis index [1]: significantly lowered | melittin+CD11b+ double positive cells in total CD11b+ cell population (splenocytes): no difference
